Legend:
[1] = molecular target: Human immunodeficiency virus type 1 protease (Human immunodeficiency virus 1, UniProt Q72874); test: (§1) Inhibition of wild type HIV1 protease expressed in Escherichia coli using Arg-Glu (EDANS)-Ser-Gln-Asn-Tyr-Pro-Ile-Val-Gln-Lys(DABCYL)-Arg as substrate preincubated for 20 to 30 mins followed by substrate addition and measured for 10 mins by FRET assay
[2] = test system: Human immunodeficiency virus 1; test: Antiviral activity against wild type HIV-1; type: functional, organism-based
[3] = test system: Human immunodeficiency virus 1; test: Antiviral activity against VSV-G pseudotyped HIV1 NL4-3 in human TZM-bl cells infected with virus particles extracted from human SupT1 cells infected with HIV1 NL4-3 at 10 uM incubated for 48 hrs assessed as inhibition of late stage viral infection by luciferase assay relative to control; type: functional; settings: Human immunodeficiency virus 1, NL4-3, TZM
[4] = test system: Human immunodeficiency virus 1; test: Potency index, ratio of Darunavir IC50 to compound IC50 for antiviral activity against wild type HIV-1; type: functional
[5] = test system: Human immunodeficiency virus 1; test: Antiviral activity against VSV-G pseudotyped HIV1 NL4-3 infected in human SupT1 cells assessed as inhibition of early stage viral infection at 10 uM after 48 hrs by luciferase assay relative to control; type: functional; settings: Human immunodeficiency virus 1, NL4-3, SUP-T1, 48 h
[6] = molecular target: Human immunodeficiency virus type 1 protease (Human immunodeficiency virus 1) (UniProt Q72874); test: as §1, with “Potency index, ratio of Darunavir Ki to compound Ki for inhibition” for “Inhibition”
[7] = test system: Human immunodeficiency virus 1; test: (§2) Antiviral activity against VSV-G pseudotyped darunavir-resistant HIV1 NL4-3 in human SupT1 cells infected with supernatants of virus particles extracted from human 293T cells infected with darunavir-resistant HIV1 NL4-3 incubated for 48 hrs assessed as inhibition of late stage viral infection by single-round infection based luciferase reporter assay; type: functional, organism-based; settings: Human immunodeficiency virus 1, NL4-3, 48 h
[8] = test system: Human immunodeficiency virus 1; test: as §2, with “wild type” for “darunavir-resistant”; type: functional, organism-based; settings: Human immunodeficiency virus 1, NL4-3, 48 h

| SMILES | Ki [1] [nM] | IC50 [2] [nM] | other results |
| --- | --- | --- | --- |
| CC(C)CN(C[C@@H](O)[C@H](Cc1ccccc1)NC(=O)CN1CCO[C@H](C)C1)S(=O)(=O)c1ccc(N)cc1 | 18.9 | 84.6 | – |
| COc1ccc(S(=O)(=O)N(CC(C)C)C[C@@H](O)[C@H](Cc2ccccc2)NCCN2CCOCC2)cc1 | 250 | 1110 | – |
| COc1ccc(S(=O)(=O)N(CC(C)C)C[C@@H](O)[C@H](Cc2ccccc2)NCC(=O)N2CCOCC2)cc1 | 298 | 1330 | – |
| CC(C)CN(C[C@@H](O)[C@H](Cc1ccccc1)NC(=O)CN1CCO[C@@H](C)C1)S(=O)(=O)c1ccc(C(F)(F)F)cc1 | 93.9 | 419 | – |
| COc1ccc(S(=O)(=O)N(CC(C)C)C[C@@H](O)[C@H](Cc2ccccc2)NC(=O)N2CCOCC2)cc1 | 0.21 | 0.95 | inhibition at 10 µM [3]: 91%; Ratio IC50 [4]: 2; inhibition at 10 µM [5]: 12%; Ratio Ki [6]: 2; EC50 [7]: 4900 nM; EC50 [8]: 2000 nM |
| COc1ccc(S(=O)(=O)N(CC(C)C)C[C@@H](O)[C@H](Cc2ccccc2)NC(=O)CN2CCO[C@@H](C)C2)cc1 | 5.71 | 25.5 | – |
| CC(C)CN(C[C@@H](O)[C@H](Cc1ccccc1)NC(=O)CN1CCO[C@H](C)C1)S(=O)(=O)c1ccc(C(F)(F)F)cc1 | 61 | 272 | – |
| CC(C)CN(C[C@@H](O)[C@H](Cc1ccccc1)NC(=O)CN1CCO[C@@H](C)C1)S(=O)(=O)c1ccc(N)cc1 | 28.4 | 127 | – |
| CC(C)CN(C[C@@H](O)[C@H](Cc1ccccc1)NC(=O)O[C@H]1CO[C@H]2OCC[C@H]21)S(=O)(=O)c1ccc(N)cc1 | – | – | inhibition at 10 µM [3]: 100%; EC50 [7]: 240 nM; EC50 [8]: 3.9 nM |
| CC(C)CN(C[C@@H](O)[C@H](Cc1ccccc1)NCCN1CCOCC1)S(=O)(=O)c1ccc(C(F)(F)F)cc1 | 336 | 1500 | – |
| CC(C)CN(C[C@@H](O)[C@H](Cc1ccccc1)NCC(=O)N1CCOCC1)S(=O)(=O)c1ccc(N)cc1 | 22.8 | 102 | – |
| CC(C)CN(C[C@@H](O)[C@H](Cc1ccccc1)NCC(=O)N1CCOCC1)S(=O)(=O)c1ccc(C(F)(F)F)cc1 | 127 | 568 | – |
| CC(C)CN(C[C@@H](O)[C@H](Cc1ccccc1)NC[C@H](O)CN1CCOCC1)S(=O)(=O)c1ccc(N)cc1 | 197 | 881 | – |
| CC(C)CN(C[C@@H](O)[C@H](Cc1ccccc1)NC(=O)N1CCOCC1)S(=O)(=O)c1ccc(C(F)(F)F)cc1 | 16.8 | 75 | – |
| CC(C)CN(C[C@@H](O)[C@H](Cc1ccccc1)NC(=O)CN1CCOCC1)S(=O)(=O)c1ccc(C(F)(F)F)cc1 | 9.9 | 44.2 | – |
| CC(C)CN(C[C@@H](O)[C@H](Cc1ccccc1)NCCN1CCOCC1)S(=O)(=O)c1ccc(N)cc1 | 96.2 | 429 | – |
| COc1ccc(S(=O)(=O)N(CC(C)C)C[C@@H](O)[C@H](Cc2ccccc2)NC(=O)CN2CCOCC2)cc1 | 7.44 | 33.2 | – |
| CC(C)CN(C[C@@H](O)[C@H](Cc1ccccc1)NC(=O)OCCN1CCOCC1)S(=O)(=O)c1ccc(N)cc1 | 0.86 | 3.85 | – |
| CC(C)CN(C[C@@H](O)[C@H](Cc1ccccc1)NC[C@H](O)CN1CCOCC1)S(=O)(=O)c1ccc(C(F)(F)F)cc1 | 651 | 1500 | – |
| COc1ccc(S(=O)(=O)N(CC(C)C)C[C@@H](O)[C@H](Cc2ccccc2)NC(=O)OCCN2CCOCC2)cc1 | 0.09 | 0.41 | inhibition at 10 µM [3]: 94%; Ratio IC50 [4]: 4; inhibition at 10 µM [5]: 5%; Ratio Ki [6]: 4; EC50 [7]: 9500 nM; EC50 [8]: 1200 nM |
| CC(C)CN(C[C@@H](O)[C@H](Cc1ccccc1)NC(=O)N1CCOCC1)S(=O)(=O)c1ccc(N)cc1 | 7.28 | 32.5 | – |
| COc1ccc(S(=O)(=O)N(CC(C)C)C[C@@H](O)[C@H](Cc2ccccc2)NC(=O)CN2CCO[C@H](C)C2)cc1 | 14.2 | 63.6 | – |
| CC(C)CN(C[C@@H](O)[C@H](Cc1ccccc1)NC(=O)OCCN1CCOCC1)S(=O)(=O)c1ccc(C(F)(F)F)cc1 | 2.22 | 9.92 | – |
| CC(C)CN(C[C@@H](O)[C@H](Cc1ccccc1)NC(=O)CN1CCOCC1)S(=O)(=O)c1ccc(N)cc1 | 8.45 | 37.7 | – |
| COc1ccc(S(=O)(=O)N(CC(C)C)C[C@@H](O)[C@H](Cc2ccccc2)NC[C@H](O)CN2CCOCC2)cc1 | 750 | 1500 | – |

From ChEMBL document CHEMBL4616700, “Novel HIV-1 Protease Inhibitors with Morpholine as the P2 Ligand to Enhance Activity against DRV-Resistant Variants” (ACS Med Chem Lett, 2020)
